The values that follow come from patent US20240024233A1, “Oral Hydrogel Compositions and Uses” (Colgate-Palmolive Company, priority 2020, published 2024).

≈ marks a conversion by molar mass, not a printed value.

Data set [1] has as its system Actinomyces viscosus (ATCC #43146) and Streptococcus oralis (ATCC #35037). Kind of data set: Viability via SIKT with degraded oral gel. In kind it is cell-based. As to conditions: for percentage of cells that are viable relative to PBS control: n = 6. The text has this: For viability via SIKT, the same gel degradation procedure as described above is used to treat an overnight culture of Actinomyces viscosus (ATCC #43146) and Streptococcus oralis (ATCC #35037). […] Samples are then processed and the results are presented as a percentage of cells that are viable relative to a control sample treated with PBS alone (negative control).

Data set [2] is described as follows: Tetrahydrocurcumin solubility (saturation) in hydrogel formulations, UV 280 nm. In kind it is physicochemical. As to conditions: 4 °C, aqueous with cosolvent or surfactant or cyclodextrin, thermodynamic from solid; tested gels. On the procedure:
Tetrahydrocurcumin is a highly insoluble drug. It has water solubility of about 6 μg/mL, and this has severely limited attempts to evaluate its in vitro or in vivo potency as a drug because of the difficulty of formulating compositions which can effectively deliver it to body tissues. It is thus a useful reference for compositions intended to deliver low-solubility active agents.
A range of hydrogel formulations are prepared in cold (4° C.) deionized water. Each cold formulation liquid is loaded with tetrahydrocurcumin (0.3 mg/mL of gel) via dispersion with a Speed Mixing apparatus (FlackTek, Inc). Samples are left to interact at 4° C. for 48 hours. Formulations are centrifuged at 10,000 rpm for 60 seconds to separate undissolved active. The saturation of active is determined via UV absorbance at 280 nm.
Tetrahydrocurcumin is found to be soluble in the above tested gels at the following saturation concentrations: […]

The conditions of data set [3]: in water; cited from earlier work.

In the case of `CCO` [Ethanol], the “percentage of cells that are viable relative to PBS control, Average” value in data set [1] (Average of Day 0-28, n = 24) turned out to be 16.3%. In addition, the “percentage of cells that are viable relative to PBS control” value came out at 16.8% in data set [1] (Day 0, 30 seconds treatment); 14.5% in data set [1] (Day 7, 30 seconds treatment); 14.7% in data set [1] (Day 14, 30 seconds treatment); 19.0% in data set [1] (Day 28, 30 seconds treatment).
With `COc1cc(CCC(=O)CC(=O)CCc2ccc(O)c(OC)c2)ccc1O` [Tetrahydrocurcumin], the solubility – broadly, the dissolved amount per volume that the medium holds – at 48 h in data set [2] lay within 85 to 236 µg/mL (≈ 228 to 634 µM). The water solubility result in data set [3] was “about 6 μg/mL”.
